Measured values as given in patent publication US7427627B2, “N-(4-(4-methylthiazol-5-yl) pyrimidin-2-yl)-N-phenylamines as antiproliferative compounds” (Cyclacel Limited, priority 2001, dated 2008).
Like-named read-outs stand apart in the source and are kept apart here.

Assays:
H1299 = experiment: 72-h MTT assay, H1299; assay type: cell-based; conditions: Homo sapiens, NCI-H1299, 72 h, read-out: 72-h MTT IC50 H1299; Table 3; Lung
Procedure: (§1) The compounds from the examples above were subjected to a standard cellular proliferation assay using human tumour cell lines obtained from the ATCC (American Type Culture Collection, 10801 University Boulevard, Manessas, Va. 20110-2209, USA). Standard 72-h MTT (thiazolyl blue; 3-[4,5-dimethylthiazol-2-yl]-2,5-diphenyltetrazolium bromide) assays were performed (Haselsberger, K.; Peterson, D. C.; Thomas, D. G.; Darling, J. L. Anti Cancer Drugs 1996, 7, 331-8; Loveland, B. E.; Johns, T. G.; Mackay, I. R.; Vaillant, F.; Wang, Z. X.; Hertzog, P. J. Biochemistry International 1992, 27, 501-10). In short: cells were seeded into 96-well plates according to doubling time and incubated overnight at 37° C. Test compounds were made up in DMSO and a 1/3 dilution series prepared in 100 μL cell media, added to cells (in triplicates) and incubated for 72 ho at 37° C. MTT was made up as a stock of 5 mg/mL in cell media and filter-sterilised. Media was removed from cells followed by a wash with 200 μL PBS. MTT solution was then added at 20 μL per well and incubated in the dark at 37° C. for 4 h. MTT solution was removed and cells again washed with 200 μL PBS. MTT dye was solubilised with 200 μL per well of DMSO with agitation.

Hela = experiment: 72-h MTT assay, Hela; assay type: cell-based; conditions: Homo sapiens, read-out: 72-h MTT IC50 Hela, Table 3, Cervix
Procedure: as §1

Hs27 = experiment: 72-h MTT assay, Hs27; assay type: cell-based; conditions: Homo sapiens, HS27, 72 h, read-out: 72-h MTT IC50 Hs27; Table 3; Foreskin fibroblast (non-transformed)
Procedure: as §1

Lovo = experiment: 72-h MTT assay, Lovo; assay type: cell-based; conditions: Homo sapiens, read-out: 72-h MTT IC50 Lovo, Table 3, Colon
Procedure: as §1

HCT-116 = experiment: 72-h MTT assay, HCT-116; assay type: cell-based; conditions: Homo sapiens, HCT-116, 72 h, read-out: 72-h MTT IC50 HCT-116; Table 3; Colon
Procedure: as §1

Saos-2 = experiment: 72-h MTT cytotoxicity assay, Saos-2; assay type: cell-based; conditions: Homo sapiens
How it was run: (§2)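 Human cell lines seeded at densities set by doubling time, left overnight at 37° C, then exposed in triplicate to a 1/3 dilution series of compound in DMSO for 72 h at 37° C. Viability read by MTT reduction (4 h, dark, 37° C), formazan dissolved in DMSO.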

nci-H460 = experiment: 72-h MTT assay, nci-H460; assay type: cell-based; conditions: Homo sapiens, NCI-H460, 72 h, read-out: 72-h MTT IC50 nci-H460; Table 3; Lung
Procedure: as §1

DU-145 = experiment: 72-h MTT assay, DU-145; assay type: cell-based; conditions: Homo sapiens, DU-145, 72 h, read-out: 72-h MTT IC50 DU-145; Table 3; Prostate
Procedure: as §1

U2OS = experiment: 72-h MTT assay, U2OS; assay type: cell-based; conditions: Homo sapiens, read-out: 72-h MTT IC50 U2OS, Table 3, Bone osteosarcoma
Procedure: as §1

SKUT-1B = experiment: 72-h MTT assay, SKUT-1B; assay type: cell-based; conditions: Homo sapiens, Skut1B, read-out: 72-h MTT IC50 SKUT-1B, Table 3, Leiomyosarcoma
Procedure: as §1

CCRF-CEM = experiment: 72-h MTT assay, CCRF-CEM; assay type: cell-based; conditions: Homo sapiens, read-out: 72-h MTT IC50 CCRF-CEM, Table 3, Leukaemia
Procedure: as §1

HT29 = experiment: 72-h MTT cytotoxicity assay, HT29; assay type: cell-based; conditions: Homo sapiens
How it was run: as §2

K562 = experiment: 72-h MTT assay, K562; assay type: cell-based; conditions: Homo sapiens, K562, 72 h, read-out: 72-h MTT IC50 K562; Table 3; Chronic myelogenous leukaemia
Procedure: as §1

AGS = experiment: 72-h MTT assay, AGS; assay type: cell-based; conditions: Homo sapiens, read-out: 72-h MTT IC50 AGS, Table 3, Gastric adenocarcinoma
Procedure: as §1

CDK2/cyclin E = target: T1, CDK2/cyclin E (Homo sapiens, UniProt P24941); experiment: Kinase assay CDK2/cyclin E; assay type: biochemical; conditions: Table 1; read-out: Kinase inhibition, IC50 (μM) CDK2/E
T1 construct: His6

A549 = experiment: 72-h MTT cytotoxicity assay, A549; assay type: cell-based, human; conditions: Homo sapiens
SKUT-1 = experiment: 72-h MTT assay, SKUT-1; assay type: cell-based; conditions: Homo sapiens, SK-UT-1, 72 h, read-out: 72-h MTT IC50 SKUT-1; Table 3; Leiomyosarcoma
Procedure: as §1

SJSA-1 = experiment: 72-h MTT assay, SJSA-1; assay type: cell-based; conditions: Homo sapiens, SJSA-1, 72 h, read-out: 72-h MTT IC50 SJSA-1; Table 3; Osteogenic sarcoma
Procedure: as §1

IMR-90 = experiment: 72-h MTT assay, IMR-90; assay type: cell-based; conditions: Homo sapiens, IMR-90, 72 h, read-out: 72-h MTT IC50 IMR-90; Table 3; Foetal lung fibroblast (non-transformed)
Procedure: as §1

HL60 = experiment: 72-h MTT assay, HL60; assay type: cell-based; conditions: Homo sapiens, HL-60, 72 h, read-out: 72-h MTT IC50 HL60; Table 3; Promyelocytic leukaemia
Procedure: as §1

Messa = experiment: 72-h MTT assay, Messa; assay type: cell-based; conditions: Homo sapiens, MES-SA, read-out: 72-h MTT IC50 Messa, Table 3, Uterine
Procedure: as §1

Hacat = experiment: 72-h MTT assay, Hacat; assay type: cell-based; conditions: Homo sapiens, read-out: 72-h MTT IC50 Hacat, Table 3, Skin keratinocytes
Procedure: as §1

CDK4/cyclin D1 = CDK4/cyclin D1 (Homo sapiens, UniProt P11802); experiment: Kinase assay CDK4/cyclin D1;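 also: Enzyme: His6-tagged recombinant human CDK4 produced in baculovirus-infected Sf9 insect cells and purified by metal-chelate chromatography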
Sequence of CDK4/cyclin D1 (P11802 whole entry): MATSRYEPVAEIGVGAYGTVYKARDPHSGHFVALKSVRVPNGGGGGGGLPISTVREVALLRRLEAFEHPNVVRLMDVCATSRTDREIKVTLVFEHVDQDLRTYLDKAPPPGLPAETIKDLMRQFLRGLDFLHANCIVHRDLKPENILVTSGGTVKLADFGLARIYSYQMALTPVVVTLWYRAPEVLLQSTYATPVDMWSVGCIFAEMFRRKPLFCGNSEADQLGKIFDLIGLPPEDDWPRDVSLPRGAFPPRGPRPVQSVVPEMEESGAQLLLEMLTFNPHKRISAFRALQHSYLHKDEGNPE
Sequence of CDK4/cyclin D1 (P24385 whole entry partner): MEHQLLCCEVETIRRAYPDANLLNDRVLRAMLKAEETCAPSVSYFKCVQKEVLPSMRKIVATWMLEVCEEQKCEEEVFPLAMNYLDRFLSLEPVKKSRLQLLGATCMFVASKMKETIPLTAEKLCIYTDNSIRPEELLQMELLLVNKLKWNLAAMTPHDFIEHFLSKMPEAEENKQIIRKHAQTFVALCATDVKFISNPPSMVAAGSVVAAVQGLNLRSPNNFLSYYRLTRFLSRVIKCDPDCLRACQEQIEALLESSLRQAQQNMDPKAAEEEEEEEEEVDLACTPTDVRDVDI

SK-N-MC = experiment: 72-h MTT assay, SK-N-MC; assay type: cell-based; conditions: Homo sapiens, read-out: 72-h MTT IC50 SK-N-MC, Table 3, Neuroblastoma
Procedure: as §1

Messa-Dx5 = experiment: 72-h MTT assay, Messa-Dx5; assay type: cell-based; conditions: Homo sapiens, MES-SA/Dx5, 72 h, read-out: 72-h MTT IC50 Messa-Dx5; Table 3; Uterine
Procedure: as §1

MCF-7 = experiment: 72-h MTT assay, MCF-7; assay type: cell-based; conditions: Homo sapiens, MCF7, 72 h, read-out: 72-h MTT IC50 MCF-7; Table 3; Breast
Procedure: as §1

WI38 = experiment: 72-h MTT assay, WI38; assay type: cell-based; conditions: Homo sapiens, WI-38, 72 h, read-out: 72-h MTT IC50 WI38; Table 3; Foetal lung (non-transformed)
Procedure: as §1

tumour cells = experiment: 72-h MTT assay, mean over tumour cell lines; assay type: cell-based; conditions: Homo sapiens, Table 3
Procedure: as §1

protein kinase C α = target: T2, protein kinase C α (Homo sapiens, UniProt P17252); experiment: Kinase specificity assay PKCα; assay type: biochemical; conditions: Table 2
T2 construct: His6
Procedure: PKCα kinase activity may be measured by the incorporation of radio-labeled phosphate in Histone 3, as described. The reaction mixture (total volume 65 μl) consist of 50 mM Tris-HCl, 1 mM Calcium acetate, 3 mM DTT, 0.03 mg/ml Phosphatidylserine, 2.4 μg/ml PMA, 0.04% NP40, 12 mM Mg/Cl, purified PKCα-100 ng, Histone 3, 0.2 mg/ml, 100 μM ATP, 0.2 μCi [γ-^32P]-ATP. The reaction is carried over 15 min at 37° C. in microplate shaker and is stopped by adding 10 μl 75 mM orthophosphoric acid and placing the plate on ice. 50 μl of the reaction mixture is transferred onto P81 filterplate and after washing off the free radioactive phosphate (3 times with 200 μl 75 mM orthophosphoric acid per well) 50 μl of scintillation liquid (Microscint 40) were added to each well and the radioactivity is measured on Scintillation counter (Topcount, HP).

[1] = target: calmodulin-dependent kinase II; conditions: read-out: Kinase specificity IC50 Cam-KII; Table 2
[2] = target: CDK7-cyclin H-MAT 1 complex (Homo sapiens, UniProt P50613); experiment: Kinase specificity assay CDK7/H; assay type: biochemical; conditions: Table 2
Sequence of CDK7-cyclin H-MAT 1 complex (P50613 whole entry): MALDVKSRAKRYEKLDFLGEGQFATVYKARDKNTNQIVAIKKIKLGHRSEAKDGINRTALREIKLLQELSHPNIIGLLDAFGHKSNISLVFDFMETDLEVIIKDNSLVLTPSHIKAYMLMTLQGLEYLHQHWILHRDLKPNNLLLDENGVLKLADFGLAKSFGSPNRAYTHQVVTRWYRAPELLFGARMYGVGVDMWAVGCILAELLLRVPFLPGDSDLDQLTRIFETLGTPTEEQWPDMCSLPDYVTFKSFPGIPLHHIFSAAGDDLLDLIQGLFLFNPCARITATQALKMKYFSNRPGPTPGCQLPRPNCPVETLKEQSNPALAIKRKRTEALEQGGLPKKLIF
Sequence of CDK7-cyclin H-MAT 1 complex (P51946 whole entry partner): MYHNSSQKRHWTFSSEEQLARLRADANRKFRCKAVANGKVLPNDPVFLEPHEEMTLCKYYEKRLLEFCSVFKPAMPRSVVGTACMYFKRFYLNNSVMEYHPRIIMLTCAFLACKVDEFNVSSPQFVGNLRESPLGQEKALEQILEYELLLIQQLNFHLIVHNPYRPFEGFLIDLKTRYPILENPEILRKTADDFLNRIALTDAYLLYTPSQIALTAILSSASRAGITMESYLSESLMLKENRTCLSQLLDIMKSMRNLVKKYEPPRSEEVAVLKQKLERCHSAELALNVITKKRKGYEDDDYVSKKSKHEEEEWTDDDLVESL
Sequence of CDK7-cyclin H-MAT 1 complex (P51948 whole entry partner): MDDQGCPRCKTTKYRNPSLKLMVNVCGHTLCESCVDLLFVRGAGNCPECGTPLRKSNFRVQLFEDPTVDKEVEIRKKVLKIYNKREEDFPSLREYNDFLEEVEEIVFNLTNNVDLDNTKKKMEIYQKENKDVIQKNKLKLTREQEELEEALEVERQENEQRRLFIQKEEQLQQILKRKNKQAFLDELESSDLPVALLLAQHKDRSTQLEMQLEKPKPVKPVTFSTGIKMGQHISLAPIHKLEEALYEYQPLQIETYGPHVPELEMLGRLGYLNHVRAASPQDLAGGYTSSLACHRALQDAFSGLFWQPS

CDK1-cyclin B1 complex = target: T3, CDK1-cyclin B1 complex (Homo sapiens, UniProt P06493); experiment: Kinase specificity assay CDK1/B1; assay type: biochemical; conditions: Table 2
T3 construct: His6
T3 sequence (P06493 whole entry): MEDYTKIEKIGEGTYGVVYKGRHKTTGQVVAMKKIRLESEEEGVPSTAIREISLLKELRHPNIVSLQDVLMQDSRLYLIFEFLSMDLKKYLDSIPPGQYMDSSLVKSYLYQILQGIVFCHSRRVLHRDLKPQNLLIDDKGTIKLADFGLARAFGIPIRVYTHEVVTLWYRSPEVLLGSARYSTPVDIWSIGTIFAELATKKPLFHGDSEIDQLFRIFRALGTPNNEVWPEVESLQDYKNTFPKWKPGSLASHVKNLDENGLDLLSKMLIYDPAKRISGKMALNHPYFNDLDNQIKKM
T3 sequence (P14635 whole entry partner): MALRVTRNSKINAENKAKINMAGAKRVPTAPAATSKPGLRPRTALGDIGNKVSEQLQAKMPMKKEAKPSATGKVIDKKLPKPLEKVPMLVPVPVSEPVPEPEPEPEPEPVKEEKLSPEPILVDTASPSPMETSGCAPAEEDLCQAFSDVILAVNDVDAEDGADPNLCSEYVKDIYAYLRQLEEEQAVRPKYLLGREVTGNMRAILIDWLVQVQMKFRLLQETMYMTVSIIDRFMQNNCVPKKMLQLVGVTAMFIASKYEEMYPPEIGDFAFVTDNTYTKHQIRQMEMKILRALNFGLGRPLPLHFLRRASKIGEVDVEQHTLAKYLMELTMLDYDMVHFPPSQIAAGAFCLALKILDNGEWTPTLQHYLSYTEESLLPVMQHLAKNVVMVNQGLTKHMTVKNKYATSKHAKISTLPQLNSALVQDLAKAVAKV

[3] = target: glycogen synthase kinase 3β (Homo sapiens, UniProt P49841); experiment: Kinase specificity assay GSK3β; assay type: biochemical; conditions: Table 2
Sequence of glycogen synthase kinase 3β (P49841 whole entry): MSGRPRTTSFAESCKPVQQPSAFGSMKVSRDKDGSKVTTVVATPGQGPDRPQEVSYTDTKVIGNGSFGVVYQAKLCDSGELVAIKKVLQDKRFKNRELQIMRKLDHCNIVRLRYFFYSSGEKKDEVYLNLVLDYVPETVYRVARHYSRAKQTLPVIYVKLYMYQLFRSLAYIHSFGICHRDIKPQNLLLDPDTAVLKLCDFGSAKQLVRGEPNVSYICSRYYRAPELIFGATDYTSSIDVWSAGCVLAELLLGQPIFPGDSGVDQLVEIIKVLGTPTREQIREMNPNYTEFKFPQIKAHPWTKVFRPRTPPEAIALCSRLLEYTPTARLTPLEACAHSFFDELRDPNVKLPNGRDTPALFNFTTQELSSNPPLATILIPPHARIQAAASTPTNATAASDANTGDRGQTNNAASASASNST

polo-like kinase 1 = polo-like kinase 1 (Homo sapiens, UniProt P53350); experiment: Kinase specificity assay Plk1; assay type: biochemical; conditions: Table 2
Sequence of polo-like kinase 1 (P53350 whole entry): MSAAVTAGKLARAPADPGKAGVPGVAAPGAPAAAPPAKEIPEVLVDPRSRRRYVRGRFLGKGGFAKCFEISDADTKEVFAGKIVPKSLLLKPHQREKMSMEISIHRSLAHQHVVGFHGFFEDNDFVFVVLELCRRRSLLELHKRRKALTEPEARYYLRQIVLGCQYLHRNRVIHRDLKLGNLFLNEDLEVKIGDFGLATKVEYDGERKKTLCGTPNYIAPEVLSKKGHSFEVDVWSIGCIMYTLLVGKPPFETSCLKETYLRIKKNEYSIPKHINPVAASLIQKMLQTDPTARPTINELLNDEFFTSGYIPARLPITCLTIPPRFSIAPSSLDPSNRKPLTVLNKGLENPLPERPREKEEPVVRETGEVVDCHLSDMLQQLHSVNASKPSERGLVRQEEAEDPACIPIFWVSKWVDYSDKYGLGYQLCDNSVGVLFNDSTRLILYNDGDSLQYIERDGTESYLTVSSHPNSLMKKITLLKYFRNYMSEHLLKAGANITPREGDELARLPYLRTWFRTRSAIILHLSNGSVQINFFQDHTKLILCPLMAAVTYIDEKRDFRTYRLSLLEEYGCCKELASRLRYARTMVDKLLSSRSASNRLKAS

[4] = target: p70 ribosomal protein S6 kinase (Homo sapiens, UniProt P23443); experiment: Kinase specificity assay p70-S6K; assay type: biochemical; conditions: Table 2
Sequence of p70 ribosomal protein S6 kinase (P23443 24-525): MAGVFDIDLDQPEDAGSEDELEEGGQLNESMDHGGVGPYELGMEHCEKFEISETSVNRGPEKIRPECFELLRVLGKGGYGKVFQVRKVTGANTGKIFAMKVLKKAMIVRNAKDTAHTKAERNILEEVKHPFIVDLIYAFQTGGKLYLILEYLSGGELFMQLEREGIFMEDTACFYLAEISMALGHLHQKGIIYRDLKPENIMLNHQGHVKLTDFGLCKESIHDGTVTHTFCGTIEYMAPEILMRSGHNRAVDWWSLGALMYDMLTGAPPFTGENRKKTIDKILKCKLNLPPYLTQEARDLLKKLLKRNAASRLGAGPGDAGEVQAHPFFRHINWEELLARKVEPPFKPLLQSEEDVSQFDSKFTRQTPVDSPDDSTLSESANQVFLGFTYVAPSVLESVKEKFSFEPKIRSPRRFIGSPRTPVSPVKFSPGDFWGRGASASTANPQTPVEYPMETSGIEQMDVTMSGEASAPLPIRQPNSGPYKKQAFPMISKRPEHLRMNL

[5] = target: stress-activated protein kinase 2a (Homo sapiens, UniProt Q16539); experiment: Kinase specificity assay SAPK2a; assay type: biochemical; conditions: Table 2
Sequence of stress-activated protein kinase 2a (Q16539 whole entry): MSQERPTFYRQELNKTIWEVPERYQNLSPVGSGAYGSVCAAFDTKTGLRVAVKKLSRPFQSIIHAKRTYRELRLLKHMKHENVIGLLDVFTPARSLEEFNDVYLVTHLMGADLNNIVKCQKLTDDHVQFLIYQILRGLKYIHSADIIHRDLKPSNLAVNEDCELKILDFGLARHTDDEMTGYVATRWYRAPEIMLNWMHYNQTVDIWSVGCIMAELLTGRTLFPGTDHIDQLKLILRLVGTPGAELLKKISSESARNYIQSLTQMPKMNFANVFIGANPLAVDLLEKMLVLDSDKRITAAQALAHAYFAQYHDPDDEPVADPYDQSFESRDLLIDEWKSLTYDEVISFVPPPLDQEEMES

protein kinase B = protein kinase B (Homo sapiens, UniProt P31749); experiment: Kinase specificity assay Akt/PKB; assay type: biochemical; conditions: Table 2
Sequence of protein kinase B (P31749 whole entry): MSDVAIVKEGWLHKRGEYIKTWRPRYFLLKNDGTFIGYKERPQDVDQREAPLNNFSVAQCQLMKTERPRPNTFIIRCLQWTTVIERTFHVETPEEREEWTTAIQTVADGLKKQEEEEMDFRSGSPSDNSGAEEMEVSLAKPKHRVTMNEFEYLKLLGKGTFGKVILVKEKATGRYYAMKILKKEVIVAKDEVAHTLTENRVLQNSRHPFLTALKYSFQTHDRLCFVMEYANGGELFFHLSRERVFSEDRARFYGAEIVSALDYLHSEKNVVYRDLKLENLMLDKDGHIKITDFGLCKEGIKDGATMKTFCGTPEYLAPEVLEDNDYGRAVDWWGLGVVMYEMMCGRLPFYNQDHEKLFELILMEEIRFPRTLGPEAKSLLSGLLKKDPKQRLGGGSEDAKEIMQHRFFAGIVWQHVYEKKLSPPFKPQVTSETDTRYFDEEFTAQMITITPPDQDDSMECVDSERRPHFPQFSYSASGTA

Ableson tyrosine kinase = Ableson tyrosine kinase (Homo sapiens, UniProt P00519); experiment: Kinase specificity assay Abl; assay type: biochemical; conditions: Table 2
[6] = target: extracellular-signal-regulated kinase 2 (Homo sapiens, UniProt P28482); experiment: Kinase specificity assay ERK-2; assay type: biochemical; conditions: Table 2
[7] = SAOS-2, read-out: 72-h MTT in vitro IC50 (μM) Saos-2, Table 1, 72 h
[8] = HT-29, read-out: 72-h MTT in vitro IC50 (μM) HT29, Table 1, 72 h

Cc1nc(N)sc1-c1ccnc(Nc2cccc(I)c2)n1 [Compound 10, [4-(2-Amino-4-methyl-thiazol-5-yl)-pyrimidin-2-yl]-(3-iodo-phenyl)-amine]
IC50 (H1299): 270 nM
IC50 (Hela): 140 nM
IC50 (Hs27): > 5000 nM
IC50 (Lovo): 130 nM
IC50 (HCT-116): 280 nM
IC50 (Saos-2; SAOS-2, 72 h, read-out: 72-h MTT IC50 Saos-2, Table 3, Bone osteosarcoma): 0.43 µM
IC50 (Saos-2; [7]): 0.58 µM
IC50 (nci-H460): 180 nM
IC50 (DU-145): 750 nM
IC50 (U2OS): 500 nM
IC50 (SKUT-1B): 40 nM
IC50 (CCRF-CEM): 260 nM
IC50 (HT29; HT-29, 72 h, read-out: 72-h MTT IC50 HT29, Table 3, Colon): 0.1 µM
IC50 (HT29; [8]): 0.51 µM
IC50 (K562): 150 nM
IC50 (AGS): 300 nM
IC50 (CDK2/cyclin E): 0.05 µM
IC50 (A549; A549, 72 h, read-out: 72-h MTT IC50 A549, Table 3, Lung): 0.6 µM
IC50 (A549; A549, read-out: 72-h MTT in vitro IC50 (μM) A549, Table 1, 72 h): 0.29 µM
IC50 (SKUT-1): 300 nM
IC50 (SJSA-1): 850 nM
IC50 (IMR-90): > 5000 nM
IC50 (HL60): 70 nM
IC50 (Messa): 110 nM
IC50 (Hacat): 170 nM
IC50 (CDK4/cyclin D1): 240 nM
IC50 (SK-N-MC): 280 nM
IC50 (Messa-Dx5): 130 nM
IC50 (MCF-7): 190 nM
IC50 (WI38): > 5000 nM
IC50 (tumour cells): 280 nM

Cc1nc(C)c(-c2ccnc(Nc3ccc(N(C)C)c([N+](=O)[O-])c3)n2)s1 [Compound 25, N^4-[4-(2,4-Dimethyl-thiazol-5-yl)-pyrimidin-2-yl-]-N^1,N^1-dimethyl-2-nitro-benzene-1,4-diamine]
IC50 (Saos-2; [7]): 0.35 µM
IC50 (protein kinase C α): > 100000 nM
IC50 [1]: > 100000 nM
IC50 [2]: 1300 nM
IC50 (CDK1-cyclin B1 complex): 120 nM
IC50 [3]: 900 nM
IC50 (HT29; [8]): 0.3 µM
IC50 (polo-like kinase 1): > 100000 nM
IC50 (A549; A549, 72 h, read-out: 72-h MTT in vitro IC50 (μM) A549): 0.43 µM
IC50 [4]: 25000 nM
IC50 [5]: > 100000 nM
IC50 (protein kinase B): 61000 nM
IC50 (Ableson tyrosine kinase): 9900 nM
IC50 [6]: > 100000 nM
